# Source: patent US20100239568A1, “DIAGNOSTICS AND TREATMENTS FOR TUMORS” (GENENTECH, INC., priority 2006, published 2010)
# B1: MIP-1alpha: macrophage inflammatory protein-1a (protein, UniProt P10147 24-92, looked up)
# C-C motif chemokine 3: SLAADTPTACCFSYTSRQIPQNFIADYFETSSQCSKPGVIFLTKRSRQVCADPSEEWVQKYVSDLELSA
# Experiments:
# TIB6 tumors = test: Tumor growth of TIB6 tumors in mice; type: in vivo, mouse; conditions: TIB6 in C57BL/6; 5FU 50 mg/kg once a week, Gemcitabine 120 mg/kg twice a week, IP; day 17
# Description: (§1) Cell Lines. The EL4, LLC, B16F1 and TIB6 (J558) tumor cell lines were obtained from American Type Culture Collection (ATCC) and maintained in tissue culture in high glucose Dulbecco's Modified Medium (DMEM) and supplemented with 10% fetal bovine serum (FBS) and 2 mM glutamine. The terms “B16F1” and “B16” are used interchangeably herein to refer to the same melanoma cell line.
# (§2) Antibodies. Anti-VEGF, such as G6-23, is an antibody that binds to and neutralizes murine and human forms of VEGF. Derived from phage display technology, the IgG portion comprised murine isotype IgG2a (see, e.g., Malik, A. K. et al. Redundant roles of VEGF-B and P1GF during selective VEGF-A blockade in mice. Blood 107:550-7 (2006)) and was dosed at 10 mg/kg, IP, twice weekly unless indicated otherwise. Isotype-matched control antibody was anti-human ragweed-IgG2a (Genentech, Inc.). […] Tumor measurement was performed twice/week and terminal tumor weights were determined as described above.
# B16F1 admixing experiments. […] Tumor size was assessed using Vernier calipers 2-3 times per week after tumors reached a palpable size. Tumor volume was determined using the Pi/6×L×W×W formula with L as the longest diameter and W the diameter at the position perpendicular to L.
# Chemotherapy. […] Tumor volume was measured twice a week and was calculated as described.
# B16F1 tumors = test: Tumor growth of B16F1 tumors in mice; type: in vivo, mouse; conditions: B16F1 in C57BL/6; compared to anti-VEGF treatment; day 17
# Description: as §1
# as §2, with “Inc.). Anti-CD11b+ antibody (eBioSciences), anti-L-selectin (BD BioSciences) and anti-CXCR4 (Torrey Pines Lab) were used in FACS experiments.” for “Inc.).”, “above. […]” for “above.”
# (§3) B16F1 admixing experiments. […] Tumor size was assessed using Vernier calipers 2-3 times per week after tumors reached a palpable size. Tumor volume was determined using the Pi/6×L×W×W formula with L as the longest diameter and W the diameter at the position perpendicular to L. […]
# EL4 tumors [1] = test: Tumor growth of EL4 tumors in mice; type: in vivo, mouse; conditions: EL4 in C57BL/6; 5FU 50 mg/kg once a week, Gemcitabine 120 mg/kg twice a week, IP; day 17
# Description: as §1
# as §2, with “Inc.). Anti-CD11b+ antibody (eBioSciences), anti-L-selectin (BD BioSciences) and anti-CXCR4 (Torrey Pines Lab) were used in FACS experiments.” for “Inc.).”, “above. […]” for “above.”
# as §3
# CD11b+Gr1+ cells = test: Flow cytometry of myeloid cells in tumor, bone marrow and peripheral blood of treated mice; type: in vivo, mouse; conditions: for CD11b+Gr1+ cells in B16F1 tumors after chemotherapy: tumor isolates after 17 days
# Description: Flow cytometry. Tumors of control and anti-VEGF-treated mice were isolated and single cell suspension was generated by chopping of tumor tissues followed by treatment with a cell homogenizer (VWR). BMMNCs were flushed from femur and tibia of implated animals and underwent RBC lysis using ACK lysis buffer (Cambrex, Mass.). Peripheral blood was collected by retro-orbital bleed and 40 μl of peripheral blood was pre-treated with ACK buffer for red blood cells lysis.
# Cells from BM, tumor or peripheral blood were stained with a series of monoclonal antibodies including, CD11b, Gr1, CD19, CD90, VEGFR2, CXCR4, L-Selectin2 (all from BD BioSciences, CA), VEGFR1 (R&D, CA), Tie2 (eBioSciences, CA) along with appropriate isotype control to investigate the myeloid and lymphoid fractions in each compartment. FACS data were acquired on FACS calibur and analyzed by Cell Quest Pro software (BD Biosciences).
# To isolate GFP+ cells and/or CD11b+Gr1+, single cell suspension was provided from the bone marrow or tumors of implanted mice. Cells and were stained with anti-CD11b conjugated to APC and anti-Gr1 conjugated to PE. Populations of GFP, GFP−, CD11b+Gr1+ and CD11b−Gr1− cells were isolated in a FACS Vantage machine and post-sort analysis ensured the purity of the population of interest in each compartment.
# LLC tumors = test: Tumor growth of LLC tumors in mice; type: in vivo, mouse; conditions: LLC in C57BL/6; 5FU 50 mg/kg once a week, Gemcitabine 120 mg/kg twice a week, IP; day 17
# Description: as §1
# as §2, with “Inc.). Anti-CD11b+ antibody (eBioSciences), anti-L-selectin (BD BioSciences) and anti-CXCR4 (Torrey Pines Lab) were used in FACS experiments.” for “Inc.).”, “above. […]” for “above.”
# as §3
# EL4 tumors [2] = test: In vivo treatment with clodronate liposomes and anti-VEGF, EL4 tumor volume; design: species or system mouse; conditions: mice bearing resistant tumors
# Description: In vivo treatment to examine for macrophage depletion and tumor expression: EL4, the murine lymphocyte leukemia cell line, was used. Treatment was started 48 hours after implanting EL4 tumor cells (5×10^6, 0.1 ml vol. in matrigel) in nude mice. Treatment was as follows: Group 1: 8 mice, twice a week PBS-liposome 200 μl IV and Ragweed IgG 2×5 mg/kg/week 100 μl ip.; Group 2: 8 mice, twice a Week: PBS-liposome 200 μl IV and G6-31 2×5 mg/kg/week 100 μl ip.; Group 3: 8 mice, twice a week: Clodronate-liposome 200 μl IV. Ragweed IgG 2×5 mg/kg/week 100 μl ip.; Group 4: 8 mice twice a week: Clodronate-liposome 200 μl IV. G6-31 2×5 mg/kg/week 100 μl ip. Group 5: 8 mice twice a week: Clodronate-liposome 200 μl Iv. PBS twice a week 100 μl ip. 3 mice of each group were pre-bled for 50 μl of whole blood for FACS macrophage cell population evaluation. 3 mice of each group were bled (optical) for 100 μl of whole blood at 1 hour after each PBS-liposome or Clodronate-liposome injection for FACS analysis. The study continued until sufficient tumor growth (not beyond 5 weeks). Tumor growth was defined as sufficient if a tumor was greater than 20 mm in length. Tumor size was measured weekly (1×w×h). […] At the endpoint of the experiment the animals were sacrificed, the tumors, measured one final time then extracted, weighed and then fixed. […]
# HUVEC cells = test: Angiogenic sprouting and capillary lumen formation assay; type: cell-based, human; conditions: 1.25 μg/ml with D551 fibroblasts, day 10
# Description: See FIG. 13, Panel A and Pane B on day 10. In the assays, HUVEC cells were thawed at low passage number a day before the cells were coated on beads. The cells were detached at about 80% confluency and coated on cytodex microbeads (a cross-linked dextran matrix) with HUVEC (400 cells/bead) for 4 hours at 37° C. Beads and free HUVEC cells were transferred to a flask and cultured overnight. The beads were detached and they were mixed with fibrinogen (bovine plasma) (250 μg/ml). Fibrinogen was then converted to insoluble fibrin gel by adding thrombin. There are about 100 beads/12-well plate. The beads were cultured with 40,000 D551 fibroblasts and VEGF as positive controls, D551 or VEGF as negative controls, MCP-1 and D551, or MIP-1alpha and D551. The media was changed everyday. The cultures were stained with biotinylated anti-human CD31 and Cy3 streptavidin overnight with extensive washes. Pictures were taken at 60 hours, 6 days and 10 days.
# [3] = tested on: human cancers, including renal and ovarian carcinomas; conditions: clinical evaluation; cited from earlier work
# xenograft models = conditions: most xenograft models tested; cited from earlier work
Molecule,tumor response to chemotherapy (tumor volume) (TIB6 tumors),tumor response to chemotherapy (tumor volume) (B16F1 tumors),tumor response to chemotherapy (tumor volume) (EL4 tumors [1]),CD11b+Gr1+ cells in B16F1 tumors after chemotherapy (CD11b+Gr1+ cells),tumor response to chemotherapy (tumor volume) (LLC tumors),angiogenic activity (sprouting and capillary lumen formation) (HUVEC cells),other results
"O=c1[nH]cc(F)c(=O)[nH]1 [5FU, 5-Fluorouracil]",completely sensitive,resistance,complete response,lack of CD11b+Gr1+ cells,complete response,,"BM CD11b+Gr1+ cells after chemotherapy (CD11b+Gr1+ cells; bone marrow, all tumor types): complete exhaustion"
Nc1ccn([C@@H]2O[C@H](CO)[C@@H](O)C2(F)F)c(=O)n1 [Gemcitabine],completely sensitive,resistance,partial resistance,lack of CD11b+Gr1+ cells,partial resistance,,
O=P(O)(O)C(Cl)(Cl)P(=O)(O)O [clodronate],,,,,,,efficacy of anti-VEGF treatment after depletion of TAMs (EL4 tumors [2]): improved
MCP-1: monocyte chemoattractant protein-1,,,,,,angiogenic activity,
bevacizumab: humanized anti-VEGF monoclonal antibody,,,,,,,single-agent activity [3]: significant single-agent activity; tumor growth and tumor angiogenesis (xenograft models): significantly inhibited tumor growth and reduced tumor angiogenesis
B1,,,,,,angiogenic activity,
